Results on 1 substance are retold here after US8349768B2, “Use of abscisic acid to alter sensory characteristics of white grapes and wine” (Valent BioSciences Corporation, priority 2007, dated 2013).

Assay [1] has as its system white wine grape cultivar 'Semillon'. The experiment in a line: Semillon field experiment: standard maturity berry measurements at harvest. The class given is in vivo, grapevine. As to conditions: for Baume: Semillon berries at harvest (54 days after veraison); for Titratable Acidity / pH: Semillon berries at harvest. The protocol:
A replicated field experiment was conducted on the white wine grape cultivar ‘Semillon’ in the Riverina growing region of New South Wales, Australia to test the effect of S-ABA on white grapes. Four treatments were tested: Untreated control, 200 ppm S-ABA applied at pre-veraison, 200 ppm S-ABA applied at veraison, and 200 ppm S-ABA applied during the post-veraison period (berry sugar level of 10-11 Baume (18-20° brix)). There were 4 replicates of each treatment and the experiment was laid out in a randomized complete block (RCB) design. S-ABA was applied using a commercial airblast sprayer. S-ABA was applied at a concentration of 200 ppm in a volume of approximately 2000 L/Ha (approximately 200 gallons/A) in order to achieve thorough and complete coverage of the grape bunches. A 20% S-ABA soluble granule formulation was utilized in the experiment. The commercial surfactant Agral was included at a rate of 10 ml/100 L spray. Applications of S-ABA were made at pre-veraison (approximately 3 weeks before veraison or berry softening), veraison, and during the post-veraison period when the grape sugar levels had reached approximately 10-11 Baume (18-20° brix). The 10-11 Baume application took place 36 days after the veraison application. Irrigation, summer pruning, insecticide/fungicides and other routine vine management practices were the same as those practiced commercially by the grower in the adjacent parts of the vineyard.
Grape samples were harvested at the time of commercial harvest for berry analysis and table wine production. For the standard maturity berry measurements, 12-20 bunches per replicate were sampled. Bunches were randomly selected from both sides of the vines. Samples were analyzed using standard analytical methods used by the grape and wine industry. For additional spectral analyses, samples of 100 berries from each treatment were collected prior to winemaking.

The next assay has as its system red grapes. As to conditions: exogenous application to red grapes prior to harvest; literature; cited from earlier work.
Where [2] appears, read: 200 ppm S-ABA applied at pre-veraison.
Where [3] appears, read: 200 ppm S-ABA applied at veraison.
[4] abbreviates: 200 ppm S-ABA applied post-veraison (11 Baume).

Regarding “(S)-5-(1-hydroxy-2,6,6,-trimethyl-4-oxo-2-cyclohexen-1-yl)-3-methyl-(2Z,4E)-pentadienoic acid [S-ABA]”, the Baume is on record as 11.6 in assay [1] (200 ppm S-ABA foliar spray applied at pre-veraison), 11.7 in assay [1] (200 ppm S-ABA foliar spray applied at veraison) and 11.6 in assay [1] (200 ppm S-ABA foliar spray applied post-veraison (11 Baume)). The entries for the “Titratable Acidity” value in assay [1] (setting [2]), in assay [1] (setting [3]) and in assay [1] (setting [4]) were 4.5, 4.5 and 4.0, respectively. The pH in assay [1] (setting [2]) came to 3.57; in assay [1] (setting [3]), 3.56; in assay [1] (setting [4]) it was 3.61. Further, the “Effect on berry sugar content (Baume), pH, titratable acidity or bunch weight” value in assay [1] (Semillon, 200 ppm S-ABA treatments) is recorded as “did not consistently affect”. Moreover, in the assay with red grapes, the “Accumulation of anthocyanins and red color of grape berry skins” value was “increase the accumulation of anthocyanins and increase the red color”.
